# Tested on: HIV-1
# Test: Trough LEN concentration associated with antiviral activity (inhibitory quotient-4)
# Details: IQ4 threshold / efficacy target
# Source text: Lenacapavir (LEN) is currently approved for the treatment of multidrug-resistant HIV-1 infection in combination with other antiretrovirals for heavily treatment-experienced (HTE) individuals. […] Given the importance of oral loading doses in achieving and maintaining concentrations >IQ4, options to make up for missed oral loading doses were considered. A population-pharmacokinetic (PopPK) model was utilized to simulate various dosing scenarios to guide missed oral loading-dose recommendations for the HTE population.
smiles,measurement,value
"CC(C)(C#Cc1ccc(-c2ccc(Cl)c3c(NS(C)(=O)=O)nn(CC(F)(F)F)c23)c([C@H](Cc2cc(F)cc(F)c2)NC(=O)Cn2nc(C(F)(F)F)c3c2C(F)(F)[C@@H]2C[C@H]32)n1)S(C)(=O)=O [LEN, N-((S)-1-(3-(4-chloro-3-(methylsulfonamido)-1-(2,2,2-trifluoroethyl)-1H-indazol-7-yl)-6-(3-methyl-3-(methylsulfonyl)but-1-yn-1-yl)pyridin-2-yl)-2-(3,5-difluorophenyl)ethyl)-2-((3bS,4aR)-5,5-difluoro-3-(trifluoromethyl)-3b,4,4a,5-tetrahydro-1H-cyclopropa [3,4]cyclopenta [1,2-c]pyrazol-1-yl) acetamide]",mean trough LEN concentration associated with high antiviral activity (inhibitory quotient-4 [IQ4]),15.5 ng/mL
